Square brackets hold non-standard residues; d marks the D form. Peptide text beside a SMILES is read from it. * marks the point of attachment. Dolaproine = CO[C@@H]([C@@H]1CCCN1)[C@@H](C)C(=O)O; Dil = CC[C@H](C)[C@H](NC)[C@@H](CC(=O)O)OC; X1 = C[C@@H](N*)[C@@H](O)c1ccccc1; NMeV = CN[C@H](C(=O)O)C(C)C
Experiments:
[1] = system: 293 GCC#2 tumors; assay: Efficacy study with auristatin conjugates in 293 GCC#2 tumors, q7d×4; assay type: in vivo, SCID mice; parameters: TGI / TGD: unit not given here; settings: 300 μg/kg iv q7d×4
Experimental: 293 GCC#2 tumor-bearing SCID mice were treated with 5F9 conjugates with vc MMAE, vcMMAF or mcMMAF at three doses in comparison with 209 conjugates of these toxins or with free toxins or vehicle control. Doses were administered iv on a q7d×4 schedule. Tumors were harvested at days 3, 7, 10, 13 and 17. […] Table 18 provides a summary of the results (TGI=tumor growth inhibition, T/C=treatment/control, TGD=tumor growth delay, CR/PR=complete response/partial response; p value=measure to judge statistical significance, NS=not significant).

[2] = system: PHTX-9c primary human colon tumor xenograft; assay: Single agent antitumor activity in PHTX-9c (PHTX-09c) primary human colon tumor xenograft
Experimental: Female CB-17 SCID mice (eight weeks old) were inoculated subcutaneously (SC) into the flank with PHTX-9c tumor fragments (2 mm×2 mm). Tumor growth was monitored twice per week using vernier calipers and the mean tumor volume was calculated using the formula (0.5×[length×width^2]). When the mean tumor volume reached approximately 150 mm^3 (Study A) or 160 mm^3 (Study B), animals were randomized into treatment groups (n=10/group for Study A and n=9/group for Study B).
Doses were administered on Days 1, 8, and 15 for the QW schedule and Days 1, 4, 8, 11, 15, and 18 for the BIW schedule. […] The equivalent dose of linker+MMAE is 4% of the 5F9-vcMMAE dose. These calculations are based on a mean 3.9 MMAE molecules per antibody and a free antibody molecular weight of 150 kD. Actual antibody molecular weight will vary slightly due to degree of glycosylation.
Tumor volume and body weight were measured twice weekly and were continued beyond the treatment period to measure regrowth kinetics, as evidenced by tumor growth delay (TGD). Tumor volume measurements were continued until tumor volume reached 10% of the body weight in a single mouse within a treatment group, at which time the group was terminated. The percentage of tumor growth inhibition (TGI) ([mean tumor volume of the control group—mean tumor volume of a treated group]/mean tumor volume of the control group; a T/C ratio) was determined on Day 20. The T/C ratios across a treatment group were compared to the T/C ratios of the control group using a two-tailed Welch's t-test.
The differences in the tumor growth trends over time between pairs of treatment groups were assessed using linear mixed effects regression models. These models account for the fact that each animal was measured at multiple time points. A separate model was fit for each comparison, and the areas under the curve (AUC) for each treatment group were calculated using the predicted values from the model. The percent decrease in AUC (dAUC) relative to the reference group was then calculated.
The 5F9 vcMMAE immunoconjugate was tested for single agent anti-tumor activity in the four primary human tumor xengraft models at varying concentrations in order to explore whether GCC expression levels played a role in tumor sensitivity. […] Free-MMAE was also used as a negative control.

[3] = Free-MMAE levels in serum vs. tumor after 5F9 vcMMAE; assay type: in vivo, mice; parameters: AUCinf Serum / AUCinf Tumor: concentration or dose not given beside the values; settings: for AUCinf Serum / AUCinf Tumor: free MMAE after 5F9 vcMMAE; for Tumor/Serum: ratio of MMAE AUCinf
Experimental: Thus, the 5F9 vcMMAE immunoconjugate was confirmed to bind to GCC in the refractory PHTX-11c model. Free-MMAE levels in serum vs. tumor were also assessed to ensure the 5F9 vcMMAE immunoconjugate was being processed by the tumors (i.e., that the immunoconjugate was being internalized and that MMAE was being cleaved). A comparison of free-MMAE serum and tumor levels in the MMAE-refractory PHTX-11c model and the sensitive PHTX-09c and HEK293 GCC #2 models is shown Table 27 below. The presence of drug was confirmed within the tumors during dosing and post-dosing. Additionally, the free-MMAE levels in this tumor model were the same as the levels seen in tumor xenograft models that were sensitive to the immunoconjugate.

[4] = system: PHTX-09c s.c. xenograft; assay: 5F9 vcMMAE and cisplatin in PHTX-09c s.c. xenografts (Study CPGC-11-EF05)
Experimental: The endpoints for each treatment group was either a) tumor volume reaches 10% body weight; or b) body weight loss of >20%. The projected tumor volume at the study initiation date was 200 mm^3.
Not greater than one day prior to dosing, all animals were weighed to the nearest gram and grouped. Dosing solutions were vortexed prior to each administration to ensure correct delivery of compound. Animals received approximately 0.1 ml doses administered I.V. using a 1 cc syringe, 27-30 gauge, ½-¾ inch in length.
Tumor volume measurements were obtained twice per week using Vernier calipers (0.01 mm). Tumor volume was calculated using the formula:
Efficacy was evaluated in terms of % tumor growth inhibition (TGI) and tumor growth delay (TGD); the difference in days for treated vs. control tumors to reach final study volume).
TGI was assessed on an arbitrary day (when the maximum tumor volume (“MTV” of the control treatment group reaches the maximum allowable tumor volume), using the following formula:
TGD was assessed by calculating T−C, where T=mean time (in days) for treatment group tumors to reach a predetermined size, and where C=mean time (in days) for the control group tumors to reach a predetermined size (e.g., 1,000 mm^3).
The predicted differences in the log tumor values (Yijk−Yi0k, which can be interpreted as log10 (fold change from day 0)) were taken from the above models to calculate mean AUC values for each treatment group. A dAUC value was then calculated as:
For synergy analyses, the observed differences in the log tumor values were used to calculate AUC values for each animal. […] The AUC for the control, or vehicle, group was calculated using the predicted values from the pairwise models described above. A measure of synergy was defined as follows:
where Ak and Bk are the k^th animal in the individual treatment groups and ABk is the k^th animal in combination treatment group. AUCctl is the model-predicted AUC for the control group and was treated as a constant with no variability. The standard error of the synergy score was calculated as the square root of the sum of squared standard errors across groups A, B, and AB. The degrees of freedom were estimated using the Welch-Satterthwaite equation. A hypothesis test was performed to determine if the synergy score differed from 0. P values were calculated by dividing the synergy score by its standard error and tested against a t-distribution (two-tailed) with the above-calculated degrees of freedom.
The effect was classified into four different categories. It was considered synergistic if the synergy score was less than 0, and additive if the synergy score wasn't statistically different from 0.

[5] = system: PHTX-249 Pa s.c. xenograft; assay: 5F9 vcMMAE and gemcitabine in PHTX-249 Pa s.c. xenografts (Study CPGC-13-EF05); assay type: in vivo, CB-17 SCID mice; settings: reference vehicle
Experimental: (§1) Day D0 was the first day of treatment.
(§2) Tumor volume was calculated using the formula: […]
(§3) A negative dAUC is interpreted as an increase in AUC relative to the reference. It is important to evaluate not only the P value, but also the dAUC. Comparisons with significant P values, but small dAUC values, may not be of interest.

[6] = system: PHTX-249 Pa s.c. xenograft; assay: 5F9 vcMMAE and gemcitabine in PHTX-249 Pa s.c. xenografts (Study CPGC-13-EF08); assay type: in vivo, CB-17 SCID mice; settings: for dAUC: reference vehicle
Experimental: 264.4 ul stock Gemcitabine into 3135.6 ul NS.
as §1, §2, §3

[7] = system: PHTX-215 Pa s.c. xenograft; assay: 5F9 vcMMAE and gemcitabine in PHTX-215 Pa s.c. xenografts (Study CPGC-13-EF10); assay type: in vivo, CB-17 SCID mice; settings: for dAUC (percent decrease in treatment AUC relative to reference group V, vehicle): PHTX-215 Pa s.c. xenograft, CB-17 SCID mice
Experimental: as §1, §2
Table 77A the annotation table for group symbols. […] A negative dAUC is interpreted as an increase in AUC relative to the reference. It is important to evaluate not only the P value, but also the dAUC. Comparisons with significant P values, but small dAUC values, may not be of interest.

[8] = Study A, 0.075 mg/kg IV QW × 3 doses
[9] = Study A, 0.15 mg/kg IV QW × 3 doses
[10] = Study B, 0.135 mg/kg IV QW × 3 doses
[11] = Study B, 0.18 mg/kg IV QW × 3 doses
[12] = PHTX-215 Pa, immunoconjugate plus gemcitabine 15 mg/kg on days 1 and 3, or single agent gemcitabine

Structure (SMILES): CC[C@H](C)[C@@H]([C@@H](CC(=O)N1CCC[C@H]1[C@H](OC)[C@@H](C)C(=O)N[C@H](C)[C@@H](O)c1ccccc1)OC)N(C)C(=O)[C@@H](NC(=O)[C@@H](NC)C(C)C)C(C)C [MMAE, monomethyl auristatin E, reference compound] (H-[NMeV]V[Dil][Dolaproine]-X1)
- TGI [1]: 35.6
- CR/PR ([1]; complete response/partial response): 0
- T/C ([1]; treatment/control): 0.64
- TGD ([1]; tumor growth delay): 2
- BW change (mean maximum percent) [2, 8]: 8.3%
- TGD [2, 8]: 1.0 days
- BW change (mean maximum percent) [2, 9]: 10.8%
- TGD [2, 9]: 2.0 days
- BW change (mean maximum percent) [2, 10]: 9.3%
- TGD [2, 10]: 0.2 days
- BW change (mean maximum percent) [2, 11]: −2.3%
- TGD [2, 11]: 8.6 days
- TGI ([2]; Study B, 0.18 mg/kg IV QW × 3 doses, Day 20, 0.18 mg/kg): 50.4 (p > 0.001) %
- greatest maximum body weight loss during treatment period ([2]; Study B, day 7, 0.18 mg/kg MMAE group and 0.938 mg/kg 5F9-vcMMAE group): 2.3%
- AUCinf Serum ([3]; 293 GCC #2 model): 56.3 ng·h/mL
- AUCinf Tumor ([3]; 293 GCC #2 model): 24953 ng·h/mL
- AUCinf Serum ([3]; PHTX-9C model): 68.3 ng·h/mL
- AUCinf Tumor ([3]; PHTX-9C model): 8670 ng·h/mL
- AUCinf Serum ([3]; PHTX-11C model): 44.1 ng·h/mL
- AUCinf Tumor ([3]; PHTX-11C model): 13400 ng·h/mL
- Tumor/Serum ([3]; 293 GCC #2 model): 443
- Tumor/Serum ([3]; PHTX-9C model): 127
- Tumor/Serum ([3]; PHTX-11C model): 304

Structure (SMILES): N.N.[Cl][Pt][Cl] [cisplatin]
- number of doses tolerated ([4]; 4 mg/kg once weekly): 2 doses
- number of doses tolerated ([4]; 6 mg/kg once weekly): 1 dose
- body weight loss ([4]; PHTX-09c, cisplatin alone): > 15%
- dAUC ([4]; group C: cisplatin 4 mg/kg QW x2, reference vehicle): 50.6%

Structure (SMILES): Nc1ccn([C@@H]2O[C@H](CO)[C@@H](O)C2(F)F)c(=O)n1 [gemcitabine]
- dAUC ([5]; group B: Gemcitabine 15 mg/kg BIW): 46.0%
- dAUC ([5]; group C: Gemcitabine 20 mg/kg BIW): 46.7%
- tumor regressions (animals) ([6]; PHTX-249 Pa (Studies CPGC-13-EF05/EF08), 5F9 vcMMAE 7.5 mg/kg, gemcitabine 15 mg/kg on days 1 and 3, alone or combined): no tumor regressions
- tumor growth delay ([6]; PHTX-249 Pa, 5F9 vcMMAE plus gemcitabine 15 mg/kg on days 1 and 3 vs single agent): 17 days
- dAUC ([6]; group D: Gemcitabine 15 mg/kg BIW): 52.4%
- dAUC ([6]; group E: Gemcitabine 15 mg/kg D1,D3/week): 76.9%
- TGI [7, 12]: 69%
- tumor growth delay [7, 12]: 22.7 days
- tumor regressions (animals) [7, 12]: no tumor regressions
- dAUC (percent decrease in treatment AUC relative to reference group V, vehicle) ([7]; group C: Gemcitabine 15 mg/kg IV D1,D3/week x3): 61.0%
- dAUC (percent decrease in treatment AUC relative to reference group V, vehicle) ([7]; group F: Gemcitabine 20 mg/kg IV BIW): 65.2%

From US20140356383A1, “ADMINISTRATION OF AN ANTI-GCC ANTIBODY-DRUG CONJUGATE AND A DNA DAMAGING AGENT IN THE TREATMENT OF CANCER” (priority 2013, published 2014)
